Data from patent US6900190B2, “Active substance combinations having insecticidal and acaricidal properties” (priority 2000, dated 2005).

Test system: common spider mite (Tetranychus urticae)
Assay: Tetranychus test (OP-resistant/spray treatment)
Type: in vivo
Conditions: single active compound, 0.32 ppm, spray treatment of infested bean plants (Phaseolus vulgaris), OP-resistant mites
Description: The expected action for a given combination of two active compounds can be calculated as follows, using the formula of S. R. Colby, Weeds 15 (1967), 20-22: […]
If • X is the efficacy, expressed as % of the untreated control, when employing active compound A at an application rate of m g/ha or in a concentration of m ppm, • Y is the efficacy, expressed as % of the untreated control, when employing active compound B at an application rate of n g/ha or in a concentration of n ppm and • E is the efficacy, expressed as % of the untreated control, when employing active compounds A and B at application rates of m and n g/ha or in a concentration of m and n ppm, then [formula]
If the actual insecticidal kill rate exceeds the calculated value, the action of the combination is superadditive, i.e. a synergistic effect is present. In this case, the actually observed insecticidal kill rate must exceed the value calculated using the above formula for the expected insecticidal kill rate (E).
Tetranychus test (OP-resistant/spray treatment) […]
After the desired period of time, the effect in % is determined. […] The kill rates determined are calculated using Colby's formula.

Structure (SMILES) | Kill rate in % after 14 d
Cc1cc(C)c(C2=C(OC(=O)CC(C)(C)C)C3(CCCC3)OC2=O)c(C)c1 [Ex. (I-b-1)] | 0%
COP(N)(=O)SC (centres unmarked) [Metamidophos, methamidophos] | 0%
